From patent US20170368082A1, “FORMULATIONS OF BRINCIDOFOVIR” (priority 2016, published 2017)

Assay: Tissue distribution by quantitative whole-body autoradiography (QWBA)
Type: in vivo, male Sprague Dawley and Long-Evans rats
Conditions: for AUCall Ratio (PO/IV) / Cmax Ratio (PO/IV): 15 mg/kg, Group 7 vs Group 4
Protocol: The study utilized 4 groups of male SD rats (albino), and 3 groups of male LE rats (pigmented); a total of 39 rats. All animals were obtained from Hilltop Lab Animals, Inc. (Scottdale, Pa.). […] Rats in Group 5 were administered a single 2-h IV infusion of [^14C]brincidofovir at a target dose of 2 mg/kg. […] Three dosing formulations (one for high dose IV, one for low dose IV, and one for PO dose) were prepared at QPS on the day of dosing. The IV formulation for Groups 1, 2, 3, and 4 contained a vehicle of 10 mM sodium phosphate buffer in 5% dextrose solution at pH 8.0(±0.1).
Each animal, at their respective termination time points, was euthanized for QWBA analysis immediately after blood collection. One rat per time point per Group was euthanized as listed below.
The blood samples were maintained on wet ice (approximately 4° C.) and then centrifuged to obtain plasma within 1 h of the blood collection time. Centrifuge settings were recorded in the study notebook. Duplicate aliquots of plasma (0.050 mL) were analyzed for radioactivity using direct counting by LSC, and residual plasma was stored at approximately −70° C. and was saved for possible future analysis under a separate study protocol. Residual red blood cells were discarded as radioactive waste.
The pinna, distal limbs, hair, and tail were removed from each frozen carcass and each frozen carcass was embedded in an aqueous suspension of approximately 2% (w/v) carboxymethylcellulose and frozen into a block. The blocks were stored at approximately −20° C. prior to sectioning. Each blocked carcass was mounted on the object stage of a cryomicrotome (Leica CM3600 Cryomacrocut, Nussloch, Germany and Vibratome 9800, St. Louis, Mo.) maintained at approximately −20° C. and internal standards (3), which were plasma fortified with [^14C]-glucose at one concentration (approximately 0.05 μCi/mL), were placed into the frozen blocks, prior to sectioning, and were used for section thickness quality control. A number of whole-body sections (approximately 40 μm thick) were taken in the sagittal plane at various levels of interest using a whole-body cryomicrotome set at −20° C. Sagittal sections (20-50 μm thick) of frozen carcasses were exposed to phosphor imaging plates. Regions of images in tissues were converted to concentrations using standards. All of the major tissues, organs, and biological fluids were represented.
Tissue concentration data was determined for the following tissues and/or contents: adipose (brown and white), adrenal gland, bile (in duct), blood (cardiac), bone, bone marrow, brain (cerebrum, cerebellum, medulla), cecum (and contents), large intestine (and contents), epididymis, esophagus, eye (uvea and lens), Harderian gland, heart, kidney (cortex and medulla), liver, lung, lymph node, pancreas, pituitary gland, prostate gland, salivary gland, seminal vesicles, skeletal muscle, skin (pigmented and non-pigmented), small intestine (and contents), stomach (gastric mucosa and contents), spleen, spinal cord, testis, thymus, thyroid, and urinary bladder (and contents).
The imaging plate and sections were placed in light-tight exposure cassettes, in a copper-lined lead safe, for a 4-day exposure at room temperature. […] Quantification was performed by image densitometry using MCD image analysis software (v. 7.0, Interfocus Imaging Ltd) and a standard curve constructed from the integrated response [i.e., Molecular Dynamics Counts per square millimeter (MDC/mm^2)] and the nominal concentrations of the ^14C-calibration standards. The concentrations of radioactivity were expressed as the μg equivalents of [^14C]brincidofovir per gram sample (μg equiv/g). A lower limit of quantification (LLOQ) was applied to the data (See section 6.7.4).
Tissue concentrations that fell below the LLOQ were identified as being below the quantification limit (BQL). Tissue areas that were not visualized on autoradiographic images were identified as no sample (NS) and reported as BQL.

For `CCCCCCCCCCCCCCCCOCCCOP(=O)(O)CO[C@H](CO)Cn1ccc(N)nc1=O` [[^14C] brincidofovir], the “AUCall Ratio (PO/IV)” value (Adipose (brown)) was 0.25, the “Cmax Ratio (PO/IV)” value (Adipose (brown)) was 0.18 and the AUCall (Adipose (brown), 2 h IV infusion 15 mg/kg, Group 4) was 96.6220 μg equiv · h/g. For the same compound, the “Tissue Concentration (168 h)” value (Adipose (brown), 2 h IV infusion 15 mg/kg, Group 4, LLOQ 0.036) was 0.132 μg equiv/g, the “Tissue Concentration (168 h)” value (Adipose (brown), PO 15 mg/kg, Group 7, LLOQ 0.034) was 0.037 μg equiv/g and the AUCall (Adipose (brown), PO 15 mg/kg, Group 7) was 24.3703 μg equiv · h/g. For the same compound, the “AUCall Ratio (PO/IV)” value (Adipose (white)) was 0.16, the “Cmax Ratio (PO/IV)” value (Adipose (white)) was 0.24 and the AUCall (Adipose (white), 2 h IV infusion 15 mg/kg, Group 4) was 7.1955 μg equiv · h/g. For the same compound, the “Tissue Concentration (168 h)” value (Adipose (white), 2 h IV infusion 15 mg/kg, Group 4, LLOQ 0.036) was “BQL”, the “Tissue Concentration (168 h)” value (Adipose (white), PO 15 mg/kg, Group 7, LLOQ 0.034) was “BQL” and the AUCall (Adipose (white), PO 15 mg/kg, Group 7) was 1.1215 μg equiv · h/g. For the same compound, the “AUCall Ratio (PO/IV)” value (Adrenal Gland) was 0.19, the “Cmax Ratio (PO/IV)” value (Adrenal Gland) was 0.28 and the AUCall (Adrenal Gland, 2 h IV infusion 15 mg/kg, Group 4) was 384.2580 μg equiv · h/g. For the same compound, the “Tissue Concentration (168 h)” value (Adrenal Gland, 2 h IV infusion 15 mg/kg, Group 4, LLOQ 0.036) was 0.49 μg equiv/g, the “Tissue Concentration (168 h)” value (Adrenal Gland, PO 15 mg/kg, Group 7, LLOQ 0.034) was 0.058 μg equiv/g and the AUCall (Adrenal Gland, PO 15 mg/kg, Group 7) was 74.5860 μg equiv · h/g. The “AUCall Ratio (PO/IV)” value (Blood (cardiac)) was 0.48, the “Cmax Ratio (PO/IV)” value (Blood (cardiac)) was 0.21 and the AUCall (Blood (cardiac), 2 h IV infusion 15 mg/kg, Group 4) was 45.3555 μg equiv · h/g. The “Tissue Concentration (168 h)” value (Blood (cardiac), 2 h IV infusion 15 mg/kg, Group 4, LLOQ 0.036) was “BQL”, the “Tissue Concentration (168 h)” value (Blood (cardiac), PO 15 mg/kg, Group 7, LLOQ 0.034) was “BQL” and the AUCall (Blood (cardiac), PO 15 mg/kg, Group 7) was 21.9165 μg equiv · h/g. The “AUCall Ratio (PO/IV)” value (Bone Marrow) was 0.35, the “Cmax Ratio (PO/IV)” value (Bone Marrow) was 0.12 and the AUCall (Bone Marrow, 2 h IV infusion 15 mg/kg, Group 4) was 197.3860 μg equiv · h/g. The “Tissue Concentration (168 h)” value (Bone Marrow, 2 h IV infusion 15 mg/kg, Group 4, LLOQ 0.036) was 0.232 μg equiv/g, the “Tissue Concentration (168 h)” value (Bone Marrow, PO 15 mg/kg, Group 7, LLOQ 0.034) was 0.094 μg equiv/g and the AUCall (Bone Marrow, PO 15 mg/kg, Group 7) was 68.7413 μg equiv · h/g. For the same compound, the “AUCall Ratio (PO/IV)” value (Bone) was 0.30, the “Cmax Ratio (PO/IV)” value (Bone) was 0.39 and the AUCall (Bone, 2 h IV infusion 15 mg/kg, Group 4) was 6.1805 μg equiv · h/g. The “Tissue Concentration (168 h)” value (Bone, 2 h IV infusion 15 mg/kg, Group 4, LLOQ 0.036) was “BQL”, the “Tissue Concentration (168 h)” value (Bone, PO 15 mg/kg, Group 7, LLOQ 0.034) was “BQL” and the AUCall (Bone, PO 15 mg/kg, Group 7) was 1.8470 μg equiv · h/g. The “AUCall Ratio (PO/IV)” value (Brain (cerebellum)) was 0.07, the “Cmax Ratio (PO/IV)” value (Brain (cerebellum)) was 0.07 and the AUCall (Brain (cerebellum), 2 h IV infusion 15 mg/kg, Group 4) was 12.1870 μg equiv · h/g. The “Tissue Concentration (168 h)” value (Brain (cerebellum), 2 h IV infusion 15 mg/kg, Group 4, LLOQ 0.036) was “BQL”, the “Tissue Concentration (168 h)” value (Brain (cerebellum), PO 15 mg/kg, Group 7, LLOQ 0.034) was “BQL” and the AUCall (Brain (cerebellum), PO 15 mg/kg, Group 7) was 0.8610 μg equiv · h/g. For the same compound, the “AUCall Ratio (PO/IV)” value (Brain (cerebrum)) was 0.08, the “Cmax Ratio (PO/IV)” value (Brain (cerebrum)) was 0.07 and the AUCall (Brain (cerebrum), 2 h IV infusion 15 mg/kg, Group 4) was 9.1765 μg equiv · h/g. The “Tissue Concentration (168 h)” value (Brain (cerebrum), 2 h IV infusion 15 mg/kg, Group 4, LLOQ 0.036) was “BQL”, the “Tissue Concentration (168 h)” value (Brain (cerebrum), PO 15 mg/kg, Group 7, LLOQ 0.034) was “BQL” and the AUCall (Brain (cerebrum), PO 15 mg/kg, Group 7) was 0.7650 μg equiv · h/g. For the same compound, the “AUCall Ratio (PO/IV)” value (Brain (medulla)) was 0.06, the “Cmax Ratio (PO/IV)” value (Brain (medulla)) was 0.06 and the AUCall (Brain (medulla), 2 h IV infusion 15 mg/kg, Group 4) was 9.7470 μg equiv · h/g. For the same compound, the “Tissue Concentration (168 h)” value (Brain (medulla), 2 h IV infusion 15 mg/kg, Group 4, LLOQ 0.036) was “BQL”, the “Tissue Concentration (168 h)” value (Brain (medulla), PO 15 mg/kg, Group 7, LLOQ 0.034) was “BQL” and the AUCall (Brain (medulla), PO 15 mg/kg, Group 7) was 0.5770 μg equiv · h/g. The “AUCall Ratio (PO/IV)” value (Cecum) was 0.48 and the “Cmax Ratio (PO/IV)” value (Cecum) was 1.07.
